Experimental data as given in patent US8895585B2, “Nicotinamide derivative or salt thereof” (FUJIFILM Corporation, priority 2010, dated 2014).

target: T1, glutathione S-transferase (GST)-fused full-length human Syk protein (Homo sapiens, UniProt P43405); experiment: Syk enzyme assay; format: biochemical; settings: Syk enzyme assay, Test Example 1; read-out: IC50 of Syk-inhibitory activity
T1 construct: (GST)-fused full-length human Syk protein; GST (glutathione S-transferase); purchased Carna Biosciences
Description: A glutathione S-transferase (GST)-fused full-length human Syk protein (Carna Biosciences), which had been generated using a Baculovirus expression system, was used in the Syk enzyme assay.
15 μl of a reaction solution (1.2 ng Syk, 20 mM HEPES, 10 mM MgCl2, 50 mM NaCl, 2 mM DTT, 0.05% BSA, pH 7.0) containing a Syk protein and a predetermined concentration of a test compound was shaken for 2 minutes, and it was then left at rest at room temperature for 13 minutes. Thereafter, 5 μl of Biotin-EDPDYEWPSA-NH2 (final concentration: 0.4 μM) serving as a substrate peptide and 5 μl of ATP (final concentration: 27 μM) were added to the reaction solution, and the obtained mixture was then shaken for 2 minutes. The reaction solution was further left at rest at room temperature for 40 minutes, so as to carry out an enzyme reaction.
Thereafter, 50 μl of a reaction termination solution [5 μg/ml Streptavidin, 0.18 μg/ml PT66-K, 30 mM HEPES (pH 7.0), 150 mM KF, 75 mM EDTA, 0.15% BSA, 0.075% Tween20], which contained Streptavidin-Xlent (Cisbio) and Mab PT66-K (Cisbio), was added to the reaction solution to terminate the enzyme reaction. At the same time, the reaction solution was left at rest at room temperature for 1 hour, so as to carry out an antigen-antibody reaction. Thereafter, using EnVision (PerkinElmer), the time-resolved fluorescence was measured at 615 nm and 665 nm, so that the phosphorylation of the substrate peptide was measured.
In addition, the following are standards for evaluating IC50 of Syk-inhibitory activity used in Table 21. • A: Up to 10 nM • B: 10 to 50 nM • C: 50 to 100 nM • D: 100 to 1000 nM The set of numbers (XYZ-xyz) given in each Example number column indicates the corresponding Example number (Example XYZ-xyz) in Table 21.

Row | SMILES | IC50 [nM]
1 | COc1ccc(-c2cc(Nc3nc(N[C@@H](CN)CC(C)C)c(F)cc3C(N)=O)ccn2)c(F)c1 [Example 006-328, (R)-6-((1-amino-4-methylpentan-2-yl)amino)-5-fluoro-2-((2-(2-fluoro-4-methoxyphenyl)pyridin-4-yl)amino)nicotinamide] | < 10
2 | NC(=O)c1cc(F)c(N[C@@H](CO)c2ccccc2)nc1Nc1ccc2ncccc2c1 [Example 012-024] | 100 to 1000
3 | NC(=O)c1cc(F)c(NC2CCCCC2N)nc1Nc1cncc(-c2cn[nH]c2)c1 (stereo not drawn) [Example 002-069] | < 10
4 | COc1ccc(C[C@@H](Nc2nc(Nc3ccc4ncccc4c3)c(C(N)=O)cc2F)C(N)=O)cc1 [Example 012-034] | 100 to 1000
5 | CCOCCOCCn1ncc2ccc(Nc3nc(NC4CCCCC4N)c(F)cc3C(N)=O)cc21 (stereo not drawn) [Example 002-049] | 10 to 50
6 | CCOCCOCCOc1ncc(Nc2nc(N[C@@H]3CCCC[C@@H]3N)c(F)cc2C(N)=O)c2ccccc12 (relative stereo) [Example 004-152, 6-(cis-2-aminocyclohexylamino)-2-((1-(2-(2-ethoxyethoxy)ethoxy)isoquinolin-4-yl)amino)-5-fluoronicotinamide] | 100 to 1000
7 | NC(=O)c1cc(F)c(NC2CCCCC2N)nc1Nc1cncc(NC(=O)c2ccc(OC(F)(F)F)cc2)c1 (stereo not drawn) [Example 027-016] | 100 to 1000
8 | NC(=O)c1cc(F)c(N[C@@H]2CCCC[C@@H]2N)nc1Nc1cnc2c(NS(=O)(=O)c3cccnc3)cccc2c1 (relative stereo) [Example 41-8, 6-(cis-2-aminocyclohexylamino)-5-fluoro-2-((8-(pyridin-3-sulphonamide)quinolin-3-yl)amino)nicotinamide] | 10 to 50
9 | CC(C)C[C@@H](Nc1nc(Nc2ccc3c(cnn3CCF)c2)c(C(N)=O)cc1F)[C@H](C)N [Example 006-419, 6-(((2S,3R)-2-amino-5-methylhexan-3-yl)amino)-5-fluoro-2-((1-(2-fluoroethyl)-1H-indazol-5-yl)amino)nicotinamide] | < 10
10 | COc1ccc(-c2cc(Nc3nc(NC4CCCCC4N)c(F)cc3C(N)=O)ccn2)c(OC)c1 (stereo not drawn) [Example 002-136] | 50 to 100
11 | COc1cc(Nc2nc(N3CCC(N)C3)c(F)cc2C(N)=O)cc(OC)c1 (stereo not drawn) [Example 018-001] | 100 to 1000
12 | NCCNc1nc(Nc2cc(Cl)cc(Cl)c2)c(C(N)=O)cc1F [Example 006-007, 6-((2-aminoethyl)amino)-2-((3,5-dichlorophenyl)amino)-5-fluoro-nicotinamide] | 50 to 100
13 | NCCNc1nc(Nc2cccc(Cl)c2)c(C(N)=O)cc1F [Example 006-006, 6-((2-aminoethyl)amino)-2-(3-chlorophenylamino)-5-fluoronico-tinamide] | 100 to 1000
14 | CCOc1nc2ccc(Nc3nc(NC4CCCCC4N)c(F)cc3C(N)=O)cc2nc1OCC (stereo not drawn) [Example 002-120] | < 10
15 | CCNc1nc(Nc2ccc3ncsc3c2)c(C(N)=O)cc1F [Example 006-042, 2-((benzo[d]thiazol-6-yl)amino)-6-(ethylamino)-5-fluoronicotinamide] | 100 to 1000
16 | NC(=O)c1cc(F)c(NC2CCCCC2N)nc1Nc1cc(N2CCOCC2)ncc1F (stereo not drawn) [Example 002-166] | 100 to 1000
17 | NC(=O)c1cc(F)c(N[C@@H]2CCCC[C@@H]2N)nc1Nc1ccc2c(F)nn(C3CC3)c2c1 [Example 006-476, 6-(((1R,2S)-2-aminocyclohexyl)amino)-2-((1-cyclopropyl-3-fluoro-1H-indazol-6-yl)amino)-5-fluoronicotinamide] | < 10
18 | NC(=O)c1cc(F)c(N[C@@H]2CCCC[C@@H]2N)nc1Nc1ccnc(-c2cc[nH]c2)c1 (relative stereo) [Example 006-131, 2-((2-(1H-pyrrol-3-yl)pyridin-4-yl)amino)-6-((cis-2-aminocyclohexyl)amino)-5-fluoronicotinamide] | < 10
19 | Cc1nn(C)c2ccc(Nc3nc(N[C@H](C4CC4)[C@H](C)N)c(F)cc3C(N)=O)cc12 [Example 006-582, 6-(((1R,2S)-2-amino-1-cyclopropylpropyl)amino)-2-((1,3-dimethyl-1H-indazol-5-yl)amino)-5-fluoronicotinamide] | < 10
20 | NC(=O)c1cc(F)c(NCc2cnc[nH]2)nc1Nc1cnc2ccccc2c1 [Example 012-020] | 100 to 1000
21 | NC(=O)c1cc(F)c(NC[C@@H](N)c2ccccc2)nc1Nc1cccc(-n2nccn2)c1 [Example 006-120, (S)-2-((3-(2H-1,2,3-triazol-2-yl)phenyl)amino)-6-((2-amino-2-phenylethyl)amino)-5-fluoronicotinamide] | 10 to 50

Row | SMILES | IC50 [nM]
22 | NC(=O)c1cc(F)c(N[C@@H]2CCCC[C@@H]2N)nc1Nc1cncc(-c2cc(Cl)ccc2F)c1 (relative stereo) [Example 004-207, 6-(cis-2-aminocyclohexylamino)-2-((5-(5-chloro-2-fluorophenyl)pyridin-3-yl)amino)-5-fluoronicotinamide] | < 10
23 | Cc1ccc(S(=O)(=O)Nc2cccc3cc(Nc4nc(NC5CCCC[C@@H]5N)c(F)cc4C(N)=O)cnc23)cc1 (stereo partly drawn) [Example 41-4, 6-(cis-2-aminocyclohexylamino)-5-fluoro-2-((8-(4-methylphenylsulphonamide)quinolin-3-yl)amino)nicotinamide] | 50 to 100
24 | Cc1ccc(-c2cc(Nc3nc(NC4CCCCC4N)c(F)cc3C(N)=O)ccn2)o1 (stereo not drawn) [Example 002-063] | < 10
25 | CC(=O)Nc1cc(Nc2nc(N[C@@H]3CCCC[C@@H]3N)c(F)cc2C(N)=O)ccn1 (relative stereo) [Example 004-048] | 10 to 50
26 | C[C@H](N)[C@@H](CC1CC1)Nc1nc(Nc2ccc3c(cnn3CC(F)F)c2)c(C(N)=O)cc1F [Example 006-426, 6-(((2R,3S)-3-amino-1-cyclopropylbutan-2-yl)amino)-2-((1-(2,2-difluoroethyl)-1H-indazol-5-yl)amino)-5-fluoronicotinamide] | 100 to 1000
27 | CCOc1nccc2cc(Nc3nc(N[C@@H]4CCCC[C@@H]4N)c(F)cc3C(N)=O)ccc12 (relative stereo) [Example 004-165, 6-(cis-2-aminocyclohexylamino)-2-((1-ethoxyisoquinolin-6-yl)amino)-5-fluoronicotinamide] | < 10
28 | CCC(C)COc1ccc2cc(Nc3nc(NC4CCCCC4N)c(F)cc3C(N)=O)ccc2n1 (stereo not drawn) [Example 002-106] | 50 to 100
29 | NC(=O)c1cc(F)c(NC2CCCCC2N)nc1Nc1cncc(-c2cccc3cccnc23)c1 (stereo not drawn) [Example 002-181] | 50 to 100
30 | NC(=O)c1cc(F)c(N[C@@H]2CCCC[C@@H]2N)nc1Nc1cnc2c(F)cccc2c1 (relative stereo) [Example 004-135, 6-(cis-2-aminocyclohexylamino)-5-fluoro-2-((8-fluoroquinolin-3-yl)amino)nicotinamide] | 10 to 50
31 | NC(=O)c1cc(F)c(NC2CCCCC2N)nc1Nc1cncc(-c2cccc3cnccc23)c1 (stereo not drawn) [Example 002-179] | 50 to 100
32 | CCOCCOCCNc1cccc2cc(Nc3nc(N[C@@H]4CCCC[C@@H]4N)c(F)cc3C(N)=O)cnc12 [Example 004-133] | 10 to 50
33 | Cc1ncc(Nc2nc(NC3CCCCC3N)c(F)cc2C(N)=O)cc1-n1cccn1 (stereo not drawn) [Example 002-135] | 10 to 50
34 | CC(C)(C)[C@@H](Nc1nc(Nc2ccc3ncccc3c2)c(C(N)=O)cc1F)C(N)=O [Example 012-037] | 50 to 100
35 | NC(=O)c1cc(F)c(N[C@@H]2CCCC[C@@H]2N)nc1Nc1ccc2nc(-n3nccn3)ccc2c1 (relative stereo) [Example 004-202, 2-((2-(2H-1,2,3-triazol-2-yl)quinolin-6-yl)amino)-6-(cis-2-aminocyclohexylamino)-5-fluoronicotinamide] | < 10
36 | NC(=O)c1cc(F)c(N[C@@H]2CCCC[C@@H]2N)nc1Nc1ccc(-n2ccnc2)nc1 [Example 006-535, 2-((6-(1H-imidazole-1-yl)pyridin-3-yl)amino)-6-(((1R,2S)-2-aminocyclohexyl)amino)-5-fluoronicotinamide] | 50 to 100
37 | CC(C)COc1ccccc1-c1cncc(Nc2nc(N[C@@H]3CCCC[C@@H]3N)c(F)cc2C(N)=O)c1 (relative stereo) [Example 004-183, 6-(cis-2-aminocyclohexylamino)-5-fluoro-2-((5-(2-isobutoxyphenyl)pyridin-3-yl)amino)-nicotinamide] | 50 to 100
38 | NC(=O)c1cc(F)c(NC2CCCCC2N)nc1Nc1cncc(NC(=O)c2csc3ccccc23)c1 (stereo not drawn) [Example 027-039] | 10 to 50
39 | NC(=O)c1cc(F)c(N[C@@H]2CCCC[C@@H]2N)nc1Nc1cncc(N2CCCC2=O)c1 [Example 004-107] | 10 to 50
40 | NC(=O)c1cc(F)c(NC2CCCCC2N)nc1Nc1ccnc(-c2ccc3c(c2)OCO3)c1 (stereo not drawn) [Example 002-176] | < 10
41 | NC(=O)c1cc(F)c(NC2CCCCC2N)nc1Nc1ccnc(-c2ccccc2)c1 (stereo not drawn) [Example 002-052] | < 10
42 | NC(=O)c1cc(F)c(NC2CCCCC2N)nc1Nc1cc(-c2ccccc2)ncc1F (stereo not drawn) [Example 002-168] | 10 to 50
